Assay results: ChEMBL document CHEMBL1150183, “Spermine alkaloids from Schweinfurthia papilionacea” (J Nat Prod, 1990)

What was measured:
Type in all cases: toxicity, organism-based
[1] = test system: Salmonella typhimurium; assay: Mutagenic activity in Salmonella Typhimurium TA100 assessed as number of spontaneous revertants at 500 ug/plate by Ames test in absence of rat liver microsomal S9 fraction; details: salmonella enterica subsp. enterica serovar typhimurium
[2] = test system: Salmonella typhimurium; assay: Mutagenic activity in Salmonella Typhimurium TA98 assessed as number of spontaneous revertants at 500 ug/plate by Ames test in absence of rat liver microsomal S9 fraction; details: salmonella enterica subsp. enterica serovar typhimurium
[3] = test system: Salmonella typhimurium; assay: Mutagenic activity in Salmonella Typhimurium TA100 assessed as number of spontaneous revertants at 500 ug/plate by Ames test in presence of rat liver microsomal S9 fraction; details: salmonella enterica subsp. enterica serovar typhimurium, microsomes
[4] = test system: Salmonella typhimurium; assay: Mutagenic activity in Salmonella Typhimurium TA98 assessed as number of spontaneous revertants at 500 ug/plate by Ames test in presence of rat liver microsomal S9 fraction; details: salmonella enterica subsp. enterica serovar typhimurium, microsomes
[5] = test system: Salmonella typhimurium; assay: Mutagenic activity in Salmonella Typhimurium TA98 assessed as increase in spontaneous revertants by Ames test relative to control spontaneous reversion; details: salmonella enterica subsp. enterica serovar typhimurium
[6] = test system: Salmonella typhimurium; assay: Mutagenic activity in Salmonella Typhimurium TA97a assessed as number of spontaneous revertants at 500 ug/plate by Ames test in absence of rat liver microsomal S9 fraction; details: salmonella enterica subsp. enterica serovar typhimurium
[7] = test system: Salmonella typhimurium; assay: Mutagenic activity in Salmonella Typhimurium TA100 assessed as increase in spontaneous revertants by Ames test relative to control spontaneous reversion; details: salmonella enterica subsp. enterica serovar typhimurium

SMILES: O=C1C[C@H]2NCCCNCCCCN(CCCN1)C(=O)[C@@H]1c3cc2ccc3O[C@H]1c1ccc(O)cc1
- Activity [1]: 143
- Activity [2]: 81
- Activity [3]: 461
- Activity [4]: 778
- fold change (FC) [5]: 22
- Activity [6]: 0
- fold change (FC) [7]: 4
